Laboratory results published in patent US12570612B2, “Substituted nitrogen heterocyclic compound and anesthetic effect thereof” (priority 2019, dated 2026).
Read-outs that look alike come from different tables or passages of the source.

Key:
Assay type in all cases: in vivo
[1] = tested on: Sprague-Dawley rats; experiment: animal or person; details: rats; for ED50: LORR, up and down method, tail vein, class symbols
From the text: Evaluating indicator: The end point of anesthesia: LORR was used as the end point of anesthesia; General anesthesia effect: the disappearance of forepaw righting reflex in rats lasting for 30 seconds is taken as the index of general anesthesia effect; Anesthesia recovery index: the recovery of rat forepaw righting reflex was used as the index of anesthesia recovery.

[2] = tested on: Sprague-Dawley rats; details: tail vein
[3] = tested on: Sprague-Dawley rats; experiment: Pharmacological effect and adverse reactions under the equivalent dose (2ED50), Group C compounds; details: for Righting reflex duration / Sedation duration / Onset time: 2ED50, tail vein, rats, n=8; for Adverse reaction: Convulsions / Adverse reaction: Cough, broken-winded / Adverse reaction: Euphoria / Adverse reaction: Red urine / Adverse reaction: Slower breathing, Tetany convulsion / Adverse reaction: Systemic stiffness, Convulsions, Opisthotonus / Adverse reaction: Tongue stretching / Adverse reaction: Tremor / Adverse reaction: the four limbs rigidity: equivalent dose (2ED50), number of rats of n = 8
From the text: Evaluation index: onset time: from the completion of drug injection to the disappearance of forepaw righting reflex in rats; Duration of anesthesia: the time from the disappearance of rat forepaw righting reflex to the recovery of rat forepaw righting reflex; Recovery time of anesthesia: the time from the […] to complete recovery;

[4] = Rattus norvegicus, read-out: ED50

| SMILES | Approximate therapeutic index [1] | Minimal lethal dose [2] | Righting reflex duration [3] | Sedation duration [3] | Onset time ([3]; unit s) | Adverse reaction: Convulsions [3] | Adverse reaction: Cough, broken-winded [3] | Adverse reaction: Euphoria [3] | Adverse reaction: Red urine [3] | Adverse reaction: Slower breathing, Tetany convulsion [3] | Adverse reaction: Systemic stiffness, Convulsions, Opisthotonus [3] | Adverse reaction: Tongue stretching [3] | Adverse reaction: Tremor [3] | Adverse reaction: the four limbs rigidity [3] | ED50 [1] | ED50 [1, 4] | Onset time ([3]; unit min) |
| --- | --- | --- | --- | --- | --- | --- | --- | --- | --- | --- | --- | --- | --- | --- | --- | --- | --- |
| C[C@H](c1ccccc1)n1cncc1C(=O)COC(C)(C)C [Compound C45] | >2.2 | >10.8 mg/kg | 3.00 ± 1.02 min | 7.74 ± 0.85 min | <30 s | 0 | 0 | 0 | 8 | 0 | 7 | 0 | 0 | 1 | – | – | – |
| C[C@H](c1ccccc1)n1cnc(F)c1C(=O)COCC1CC1 [Compound C76] | >21.9 | >15.6 mg/kg | 1.72 ± 0.61 min | 4.32 ± 0.96 min | <30 s | 0 | 0 | 0 | 8 | 0 | 0 | 0 | 1 | 1 | ++ (++ means that the measured ED50 is in the range of 0.50-1.00 mg/kg (excluding 0.50 mg/kg, including 1.00 mg/kg)) | – | – |
| COCC(=O)c1c(F)ncn1[C@H](C)c1ccccc1 [Compound C71] | >8.0 | >6.6 mg/kg | 2.00 ± 0.81 min | 5.11 ± 1.64 min | <30 s | 2 | 0 | 0 | 8 | 0 | 0 | 0 | 1 | 1 | ++ (++ means that the measured ED50 is in the range of 0.50-1.00 mg/kg (excluding 0.50 mg/kg, including 1.00 mg/kg)) | – | – |
| CCOCC(=O)c1c(F)ncn1[C@H](C)c1ccccc1 [Compound C72] | >27.7 | >8.9 mg/kg | 1.29 ± 0.64 min | 5.70 ± 1.51 min | – | 0 | 0 | 0 | 8 | 0 | 0 | 0 | 0 | 0 | – | 0.04 to 0.5 mg/kg | <60 s |
| CC1OC1C(=O)c1cncn1[C@H](C)c1ccccc1 (some centres unmarked) [Compound C56] | >16.6 | >13.61 mg/kg | 1.49 ± 0.62 min | 5.32 ± 1.21 min | – | 0 | 0 | 0 | 8 | 0 | 0 | 1 | 1 | 0 | – | 2 to 10 mg/kg | <60 s |
| C#CCOCC(=O)c1cncn1[C@H](C)c1ccccc1 [Compound C35] | >12.9 | >10.3 mg/kg | 2.26 ± 0.81 min | 4.89 ± 0.98 min | <30 s | 0 | 0 | 0 | 8 | 0 | 7 | 1 | 0 | 0 | – | 0.5 to 1 mg/kg | – |
